# Laboratory results: ChEMBL document CHEMBL1142861, “Septocylindrins A and B: peptaibols produced by the terrestrial fungus Septocylindrium sp. LL-Z1518” (2007)
# Non-standard residues stand in square brackets, D forms with d. Residues, ends and D or L forms follow the SMILES beside them. *: point of attachment. X1 = OCCNC[C@H](Cc1ccccc1)N*; Aib = CC(C)(N)C(=O)O
# Assays:
# Format in all cases: functional
# [1] = test system: Candida albicans; test: Antimicrobial activity against Candida albicans by broth dilution method
# [2] = test system: Staphylococcus aureus; test: Antimicrobial activity against wild type Staphylococcus aureus by broth dilution method
# [3] = test system: Escherichia coli; test: Antimicrobial activity against wild type Escherichia coli by broth dilution method
# [4] = test system: Escherichia coli; test: Antimicrobial activity against membrane permeability mutant Escherichia coli imp by broth dilution method
# [5] = test system: Enterococcus faecium; test: Antimicrobial activity against vancomycin-resistant Enterococcus faecium by broth dilution method
# [6] = test system: Staphylococcus aureus; test: Antimicrobial activity against methicillin-resistant Staphylococcus aureus by broth dilution method
SMILES,MIC [1],MIC [2],MIC [3],MIC [4],MIC [5],MIC [6]
CC(=O)NC(C)(C)C(=O)N1CCC[C@H]1C(=O)NC(C)(C)C(=O)N[C@@H](C)C(=O)NC(C)(C)C(=O)N[C@@H](C)C(=O)N[C@@H](CCC(N)=O)C(=O)NC(C)(C)C(=O)N[C@H](C(=O)NC(C)(C)C(=O)NCC(=O)N[C@@H](CC(C)C)C(=O)NC(C)(C)C(=O)N1CCC[C@H]1C(=O)N[C@H](C(=O)NC(C)(C)C(=O)NC(C)(C)C(=O)N[C@@H](CCC(=O)O)C(=O)N[C@@H](CCC(N)=O)C(=O)N[C@H](CNCCO)Cc1ccccc1)C(C)C)C(C)C [septocylindrin A] (Ac-[Aib]P[Aib]A[Aib]AQ[Aib]V[Aib]GL[Aib]PV[Aib][Aib]EQ-X1),32 mg/L,32 mg/L,> 128 mg/L,32 mg/L,16 mg/L,128 mg/L
CC(=O)NC(C)(C)C(=O)N1CCC[C@H]1C(=O)NC(C)(C)C(=O)N[C@@H](C)C(=O)NC(C)(C)C(=O)N[C@@H](C)C(=O)N[C@@H](CCC(N)=O)C(=O)NC(C)(C)C(=O)N[C@H](C(=O)NC(C)(C)C(=O)NCC(=O)N[C@@H](CC(C)C)C(=O)NC(C)(C)C(=O)N1CCC[C@H]1C(=O)N[C@H](C(=O)NC(C)(C)C(=O)NC(C)(C)C(=O)N[C@@H](CCC(N)=O)C(=O)N[C@@H](CCC(N)=O)C(=O)N[C@H](CNCCO)Cc1ccccc1)C(C)C)C(C)C [septocylindrin B] (Ac-[Aib]P[Aib]A[Aib]AQ[Aib]V[Aib]GL[Aib]PV[Aib][Aib]QQ-X1),16 mg/L,8 mg/L,> 128 mg/L,8 mg/L,8 mg/L,16 mg/L
